Measurements reported in patent US11160806B2, “Salt of N-(2,6-diethylphenyl)-8-({4-[4-(dimethylamino) piperidin-1-yl]-2-methoxyphenyl}amino)-1-methyl-4,5-dihydro-1H-pyrazolo[4,3-h]quinazoline-3-carboxamide, its preparation, and formulations containing it” (LES LABORATOIRES SERVIER, priority 2017, dated 2021).

Columns and labels:
[1] = Preliminary solubility test, in situ salt formation from the amorphous base in water at room temperature; type: physicochemical
[2] = Solubility of phosphate salt crystalline form I in water (WFI) or NaCl 0.9% at room temperature, HPLC; type: physicochemical; conditions: for Solubility 1 hour / Solubility 24 hours: room temperature
Protocol: Testing conditions: about 730 mg of testing compound were suspended in 4 ml of WFI (water for injection) or Saline (0.9% NaCl) to test a target solubility of 150 mg/ml as free base. The suspensions were magnetically stirred for 24 hours at room temperature and protected from light in amber glass vial. Testing compound concentrations were determined after 1 and 24 hours.

[3] = Hygroscopicity by Dynamic Vapour Sorption; type: physicochemical
Protocol: The compound to be tested is submitted to hygroscopicity test by means of a Dynamic Vapour Sorption apparatus (DVS 1000—Surface Measurement Systems).
The apparatus is briefly defined as a “controlled atmosphere microbalance” where the weighed sample is exposed to variations of the relative humidity (RH) at a constant and controlled temperature. An exactly weighed amount of the product (generally 5-10 mg) was analysed.

[4] = target: T1, MPS1 (Monopolar Spindle 1) kinase, also known as TTK (Homo sapiens, UniProt P33981); conditions: cited from earlier work
T1 sequence (P33981 1-857): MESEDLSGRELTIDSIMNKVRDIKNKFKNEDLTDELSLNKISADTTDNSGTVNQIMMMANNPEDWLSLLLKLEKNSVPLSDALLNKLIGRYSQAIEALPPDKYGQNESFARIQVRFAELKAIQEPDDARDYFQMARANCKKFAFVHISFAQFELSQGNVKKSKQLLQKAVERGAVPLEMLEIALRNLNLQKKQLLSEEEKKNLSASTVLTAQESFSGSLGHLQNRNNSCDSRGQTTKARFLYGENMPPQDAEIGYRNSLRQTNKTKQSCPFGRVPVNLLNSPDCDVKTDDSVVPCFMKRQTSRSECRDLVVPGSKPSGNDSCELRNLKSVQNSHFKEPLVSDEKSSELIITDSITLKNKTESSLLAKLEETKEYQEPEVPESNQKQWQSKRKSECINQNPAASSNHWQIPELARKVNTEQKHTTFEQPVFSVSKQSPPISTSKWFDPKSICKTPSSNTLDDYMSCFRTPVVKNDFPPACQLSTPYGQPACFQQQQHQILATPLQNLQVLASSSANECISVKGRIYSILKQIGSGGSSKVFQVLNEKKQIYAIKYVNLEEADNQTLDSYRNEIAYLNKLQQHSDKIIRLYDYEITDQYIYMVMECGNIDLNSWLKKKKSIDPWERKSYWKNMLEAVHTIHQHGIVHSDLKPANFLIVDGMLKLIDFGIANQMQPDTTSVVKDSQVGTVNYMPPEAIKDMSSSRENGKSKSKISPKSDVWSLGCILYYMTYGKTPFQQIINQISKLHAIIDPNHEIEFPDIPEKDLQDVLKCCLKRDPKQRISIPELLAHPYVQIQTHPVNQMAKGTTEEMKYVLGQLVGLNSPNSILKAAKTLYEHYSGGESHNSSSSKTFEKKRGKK

[5] = Stability over time under denaturing conditions (40° C./75% RH), chemical purity; type: physicochemical
Protocol: The compound of formula (II) according to the invention has a good stability over time under denaturing conditions (40° C./75% Relative Humidity (RH)): […]

[6] = Purity and stability under long term conditions; type: physicochemical
From the text: Purity and stability of N-(2,6-diethylphenyl)-8-({4-[4-(dimethylamino) piperidin-1-yl]-2-methoxy phenyl}amino)-1-methyl-4,5-dihydro-1H-pyrazolo[4,3-h]quinazoline-3-carboxamide phosphate Form I have been tested under long term conditions as follows: […]

CCc1cccc(CC)c1NC(=O)c1nn(C)c2c1CCc1cnc(Nc3ccc(N4CCC(N(C)C)CC4)cc3OC)nc1-2 [Free Base, N-(2,6-diethylphenyl)-8-({4-[4-(dimethylamino)piperidin-1-yl]-2-methoxyphenyl}amino)-1-methyl-4,5-dihydro-1H-pyrazolo[4,3-h]quinazoline-3-carboxamide]
Solubility 1 hour ([1]; water, 1 hour): <0.001 mg/ml as free base | Solubility 24 hours ([1]; water, 24 hours): <0.001 mg/ml as free base | Solubility 1 hour ([2]; water): <0.001 mg/ml as free base | Solubility 24 hours ([2]; water): <0.001 mg/ml as free base | Water uptake at 30% RH [3]: 0.4% | Water uptake at 60% RH [3]: 1% | Water uptake at 90% RH [3]: 2.8% | Ability to inhibit MPS1 kinase [4]: has the ability to inhibit MPS1

CCc1cccc(CC)c1NC(=O)c1nn(C)c2c1CCc1cnc(Nc3ccc(N4CCC(N(C)C)CC4)cc3OC)nc1-2.O=P(O)(O)O [Phosphate salt, N-(2,6-diethylphenyl)-8-({4-[4-(dimethylamino)piperidin-1-yl]-2-methoxyphenyl}amino)-1-methyl-4,5-dihydro-1H-pyrazolo[4,3-h]quinazoline-3-carboxamide phosphate]
Chemical purity ([5]; 1 month 40° C./75% RH Open bottle): 99.4% | Chemical purity ([5]; t0): 99.5% | Improvement of solubility versus the free base [1]: at least 24 000 times | Improvement of solubility versus the hydrochloride salt [1]: at least 25 times | Solubility 1 hour ([2]; NaCl 0.9%): 81.0 mg/ml as free base | Solubility 24 hours ([2]; NaCl 0.9%): 133.6 mg/ml as free base | Solubility at room temperature ([2]; both in water and in NaCl 0.9%): at least 130 mg/ml expressed as free base | Solubility 1 hour ([2]; water): 87.5 mg/ml as free base | Solubility 24 hours ([2]; water): 130.2 mg/ml as free base | Water uptake at 30% RH [3]: 0.4% | Water uptake at 60% RH [3]: 1% | Water uptake at 90% RH [3]: 2.5% | Appearance ([6]; 1 month 5° C.): Yellow | Drug substance ([6]; 1 month 5° C.): 99.94% | Total amount of impurities ([6]; 1 month 5° C.): 0.06% | Appearance ([6]; 1 month 25° C./60% RH): Yellow | Drug substance ([6]; 1 month 25° C./60% RH): 99.93% | Total amount of impurities ([6]; 1 month 25° C./60% RH): 0.07% | Appearance ([6]; 3 months 5° C.): Yellow | Drug substance ([6]; 3 months 5° C.): 99.93% | Total amount of impurities ([6]; 3 months 5° C.): 0.07% | Appearance ([6]; 3 months 25° C./60% RH): Yellow | Drug substance ([6]; 3 months 25° C./60% RH): 99.93% | Total amount of impurities ([6]; 3 months 25° C./60% RH): 0.07% | Appearance ([6]; 9 months 5° C.): Yellow | Drug substance ([6]; 9 months 5° C.): 99.93% | Total amount of impurities ([6]; 9 months 5° C.): 0.07% | Appearance ([6]; 12 months 5° C.): Yellow | Crystalline Form (XRD assessment) ([6]; 12 months 5° C.): Form I | Drug substance ([6]; 12 months 5° C.): 99.94% | Total amount of impurities ([6]; 12 months 5° C.): 0.06% | Appearance ([6]; 24 months 5° C.): Yellow | Crystalline Form (XRD assessment) ([6]; 24 months 5° C.): Form I | Drug substance ([6]; 24 months 5° C.): 99.91% | Total amount of impurities ([6]; 24 months 5° C.): 0.09% | Time over which the substance is stable ([6]; long term conditions): ≥ 24 months | Appearance ([6]; t0): Yellow | Crystalline Form (XRD assessment) ([6]; t0): Form I | Drug substance ([6]; t0): 99.94% | Total amount of impurities ([6]; t0): 0.06%
